Where two headings read alike, the source gives them in different places.
Legend:
[1] = target: recombinant human SGK-1 enzyme (Homo sapiens, UniProt O00141); test: Enzymatic activity assay: SGK-1 substrate peptide phosphorylation (Caliper lab-chip mobility shift); type: biochemical
Protocol: In one of the cellular assays, the SGK-1 dependent phosphorylation of glycogen synthase kinase 3beta (GSK3beta) in U2OS cells was measured, in another one, a functional electrophysiological assay, the SGK-1 dependent activation of epithelial Na^+ channel (ENaC) currents in A6 cell monolayers, and in another one chondrocyte hypertrophic differentiation in mouse chondrogenic ATDC5 cells.
A) Enzymatic Activity Assay
For the determination of the compound dose response, a 10 mM DMSO stock solution was diluted and tested in a ten-point, three-fold dilution series run in duplicate beginning at 30 μM final concentration. Data were analyzed using a four-parameter curve fit with a fixed minimum and maximum experimentally defined as the average positive and negative controls on each plate.

[2] = tested on: SGK-1 dependent phosphorylation of GSK3beta in U2OS cells; test: SGK-1 dependent phosphorylation of GSK3beta in U2OS cells overexpressing recombinant SGK-1 and GSK3beta; type: cell-based, human; conditions: U2OS cells, 6 h incubation, ratio of phosphorylated GSK3beta to total GSK3beta, read-out: IC50 values for inhibition of SGK-1 dependent phosphorylation of GSK3beta in U2OS cells
Protocol: B) Determination of the Effect on SGK-1 Dependent Phosphorylation of GSK3beta in U2OS Cells
U2OS cells were cultured in 1:1 Dulbecco modified Eagle medium/Ham's F12 and 10% heat-inactivated fetal calf serum (FCS Gold) at 37° C., 7% CO2 and 95% relative humidity. […] Cell suspension mixed with BacMam viruses was seeded in 96 well pCLEAR plates (Greiner) at 3×10^4 cells per well in 250 μl medium. […] 1 μl of a solution of the test compound at 250×final concentration was added. Cells are incubated at 37° C., 7% CO2 and 95% relative humidity. […] After removing the fixation solution, cells were permeabilised by adding 200 μl PBT (0.2% Triton X-100 in PBS) per well for 5 min. After removing PBT, cells were blocked by adding 200 μl of blocking solution (1% bovine serum albumine in PBS) per well. Blocking solution was removed and 50 μl of primary antibody (rabbit anti-phospho-GSK-3beta (Ser9), and mouse anti-GSK-3beta) were added for 1 h. […] After washing the cells 3 times with PBS, 200 μl of PBS were added. Fluorescence signals were measured with the ImageXpress MICRO (Molecular Devices).

[3] = peptide substrate 1 μM, ATP 10 μM, 60 min at 37° C., read-out: IC50 values for inhibition of SGK-1 enzymatic activity

recombinant human SGK-1 enzyme, sequence (O00141 whole entry, looked up): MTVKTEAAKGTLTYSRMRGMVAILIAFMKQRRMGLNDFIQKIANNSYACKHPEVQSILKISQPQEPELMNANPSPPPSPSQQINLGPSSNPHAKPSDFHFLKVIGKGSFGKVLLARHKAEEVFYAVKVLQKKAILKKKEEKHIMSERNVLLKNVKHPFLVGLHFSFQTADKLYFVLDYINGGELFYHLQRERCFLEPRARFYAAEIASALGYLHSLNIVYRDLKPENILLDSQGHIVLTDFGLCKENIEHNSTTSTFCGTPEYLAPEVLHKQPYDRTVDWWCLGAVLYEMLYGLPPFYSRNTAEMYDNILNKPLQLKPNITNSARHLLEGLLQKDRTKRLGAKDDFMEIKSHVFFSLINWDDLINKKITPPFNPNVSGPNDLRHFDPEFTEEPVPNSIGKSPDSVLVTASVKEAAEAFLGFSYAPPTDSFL

SMILES | IC50 [1, 3] | IC50 [2] | IC50 ([1]; read-out: IC50 values for inhibition of SGK-1 enzymatic activity, peptide substrate 1 μM, ATP 10 μM, 60 min at 37° C.) | IC50 ([2]; Homo sapiens)
Cc1ccc(F)c(S(=O)(=O)Nc2ccc(-c3nc(OCCCN)c4cn[nH]c4n3)cc2)c1 [Example 204] | < 1.5 nM | 130 nM |  | 
O=S(=O)(Nc1ccc(-c2nc(OC3CNC3)c3cn[nH]c3n2)cc1F)c1cc(Cl)ccc1F [Example 442] | 29 nM | 1300 nM |  | 
O=S(=O)(Nc1ccc(-c2nc(N[C@H]3CC[C@@H](O)CC3)c3cn[nH]c3n2)cc1)c1cc(Cl)ccc1F [Example 77] | 3.9 nM | 3600 nM |  | 
N#Cc1ccc(Cl)cc1S(=O)(=O)Nc1ccc(-c2nc(OC3CNC3)c3cn[nH]c3n2)cc1 [Example 191] | 21 nM | 2700 nM |  | 
Cc1nc(-c2ccc(NS(=O)(=O)c3cc4c(cc3Cl)OCCCO4)cc2)nc2[nH]nc(N)c12 [Example 476] | 3.9 nM | 3000 nM |  | 
Cc1n[nH]c2nc(-c3ccc(NS(=O)(=O)c4cc(Cl)ccc4F)cc3)nc(OCC3CNCCO3)c12 (centres unmarked) [Example 291] | 2.5 nM | 76 nM |  | 
Cc1ccc(F)c(S(=O)(=O)Nc2ccc(-c3nc(OCCCC(N)=O)c4cn[nH]c4n3)cc2)c1 [Example 112] | 3.3 nM | 3900 nM |  | 
Cc1nc(-c2ccc(NS(=O)(=O)c3ccccc3F)cc2)nc2[nH]nc(N)c12 [Example 169] | 110 nM | 250 nM |  | 
COc1ccc(Cl)c(S(=O)(=O)Nc2ccc(-c3nc(OCC4CNCCO4)c4cn[nH]c4n3)cc2)c1 (centres unmarked) [Example 306] | 7.1 nM | 19 nM |  | 
Cc1ccc(C#N)c(S(=O)(=O)Nc2ccc(-c3nc(OCC(C)C)c4c(N)n[nH]c4n3)cc2)c1 [Example 333] | 14 nM | 1300 nM |  | 
COCCc1nc(-c2ccc(NS(=O)(=O)c3cc(Cl)ccc3F)cc2)nc2[nH]nc(N)c12 [Example 506] | 110 nM | 670 nM |  | 
Nc1n[nH]c2nc(-c3ccc(NS(=O)(=O)c4cc(Cl)sc4Cl)cc3)nc(C3CC3)c12 [Example 500] | 2.7 nM | 250 nM |  | 
COc1nc(-c2ccc(NS(=O)(=O)c3cc(Cl)cc(F)c3F)cc2)nc2[nH]ncc12 [Example 178] | 350 nM | 800 nM |  | 
COc1ccc(Cl)c(S(=O)(=O)Nc2ccc(-c3nc(OC4CCNCC4F)c4c(C)n[nH]c4n3)cc2)c1 (centres unmarked) [Example 304] | 2.3 nM | 130 nM |  | 
Cc1n[nH]c2nc(-c3ccc(NS(=O)(=O)c4cc(Cl)ccc4Cl)c(F)c3)ncc12 [Example 434] | 1.8 nM | 3500 nM |  | 
COc1ccc(F)c(S(=O)(=O)Nc2ccc(-c3nc(C4CC4)c4cn[nH]c4n3)cc2)c1 [Example 147] | 1.5 nM | 59 nM |  | 
COc1ccc(Cl)c(S(=O)(=O)Nc2ccc(-c3nc(O[C@@H]4CCC(O)C4)c4cn[nH]c4n3)cc2)c1 (some centres unmarked) [Example 91] | < 1.5 nM | 180 nM |  | 
Cc1n[nH]c2nc(-c3ccc(NS(=O)(=O)c4cc(Cl)ccc4C#N)cc3)nc(OCCCN)c12 [Example 220] | < 1.5 nM | 170 nM |  | 
O=S(=O)(Nc1ccc(-c2nc(N3CCC(O)C3)c3cn[nH]c3n2)cc1F)c1cc(Cl)ccc1Cl (centres unmarked) [Example 438] | 85 nM | 7800 nM |  | 
COCCc1nc(-c2ccc(NS(=O)(=O)c3cc(Cl)ccc3Cl)cc2)nc2[nH]nc(N)c12 [Example 505] | 47 nM | 620 nM |  | 
Cc1n[nH]c2nc(-c3ccc(NS(=O)(=O)c4ccccc4F)cc3)nc(OC3CCNCC3F)c12 (centres unmarked) [Example 297] | 1.8 nM | 80 nM |  | 

SMILES | IC50 [1, 3] | IC50 [2] | IC50 ([1]; read-out: IC50 values for inhibition of SGK-1 enzymatic activity, peptide substrate 1 μM, ATP 10 μM, 60 min at 37° C.) | IC50 ([2]; Homo sapiens)
O=S(=O)(Nc1ccc(-c2nc(OCC3CNCCO3)c3cn[nH]c3n2)cc1)c1cc(Cl)ccc1Cl (centres unmarked) [Example 312] | 6 nM | 130 nM |  | 
O=S(=O)(Nc1ccc(-c2nc(N3CCC(O)CC3)c3cn[nH]c3n2)cc1)c1cc(Cl)ccc1Cl [Example 74] | 5.5 nM | 1200 nM |  | 
COc1ccc(Cl)c(S(=O)(=O)Nc2ccc(-c3nc(OC4CCN(CCF)CC4)c4c(C)n[nH]c4n3)cc2)c1 [Example 341] | 4.9 nM | 63 nM |  | 
Nc1n[nH]c2nc(-c3ccc(NS(=O)(=O)c4cc5c(cc4Br)OCCCO5)cc3)ncc12 [Example 459] | 6.7 nM | 4000 nM |  | 
Cc1n[nH]c2nc(-c3ccc(NS(=O)(=O)c4ccccc4F)cc3)nc(OCC3CNCCO3)c12 (centres unmarked) [Example 289] | 23 nM | 200 nM |  | 
Cc1ccc(F)c(S(=O)(=O)Nc2ccc(-c3nc(OC4CCCNC4)c4c(C)n[nH]c4n3)cc2)c1 (centres unmarked) [Example 338] | 1.6 nM | 44 nM |  | 
CC(C)COc1nc(-c2ccc(NS(=O)(=O)c3cccc(F)c3Cl)cc2)nc2[nH]nc(N)c12 [Example 324] | 330 nM | 330 nM |  | 
Cc1ccc(F)c(S(=O)(=O)Nc2ccc(-c3nc(C)c4c(N)n[nH]c4n3)cc2)c1 [Example 472] | 1.5 nM | 330 nM |  | 
Cc1ccc(C#N)c(S(=O)(=O)Nc2ccc(-c3nc(C4CCC(O)C4)c4c(C)n[nH]c4n3)cc2)c1 (centres unmarked) [Example 97] | 2 nM | 1600 nM |  | 
Cc1ccc(F)c(S(=O)(=O)Nc2ccc(-c3nc(OCCC(N)=O)c4cn[nH]c4n3)cc2)c1 [Example 116] | < 1.5 nM | 4800 nM |  | 
COc1cc(-c2ncc3c(C)n[nH]c3n2)ccc1NS(=O)(=O)c1cc(Cl)ccc1Cl [Example 534, 2,5-Dichloro-N-[2-methoxy-4-(3-methyl-1H-pyrazolo[3,4-d]pyrimidin-6-yl)-phenyl]-benzenesulfonamide] |  |  | < 1.5 nM | 350 nM
COc1ccc(Cl)c(S(=O)(=O)Nc2ccc(-c3ncc4c(C)n[nH]c4n3)cc2F)c1 [Example 533, 2-Chloro-N-[2-fluoro-4-(3-methyl-1H-pyrazolo[3,4-d]pyrimidin-6-yl)-phenyl]-5-methoxy-benzenesulfonamide] |  |  |  | 1800 nM
Cc1ccc(C#N)c(S(=O)(=O)Nc2ccc(-c3cc4[nH]nc(N)c4cn3)cc2)c1 [Example 553, N-[4-(3-Amino-1H-pyrazolo[4,3-c]pyridin-6-yl)phenyl]-2-cyano-5-methyl-benzenesulfonamide] |  |  |  | 6400 nM
Cc1nc(-c2ccc(NS(=O)(=O)c3cc(Cl)ccc3Cl)cc2)nc2[nH]nc(NC(=O)C3CCOCC3)c12 [Example 545, N-[6-[4-[(2,5-Dichlorophenyl)sulfonylamino]phenyl]-4-methyl-1H-pyrazolo[3,4-d]pyrimidin-3-yl]tetrahydropyran-4-carboxamide] |  |  |  | 73 nM
Cc1nc(-c2ccc(NS(=O)(=O)c3cc(Cl)ccc3Cl)cc2)nc2[nH]nc(NC(=O)C3CC(O)C3)c12 (centres unmarked) [Example 536, 3-Hydroxy-cyclobutanecarboxylic acid {6-[4-(2,5-dichloro-benzenesulfonylamino)-phenyl]-4-methyl-1H-pyrazolo[3,4-d]pyrimidin-3-yl}-amide] |  |  |  | 3100 nM
Cc1nc(-c2ccc(NS(=O)(=O)c3cc(Cl)ccc3F)cc2)nc2[nH]ncc12 [Example 6, 5-Chloro-2-fluoro-N-[4-(4-methyl-1H-pyrazolo[3,4-d]pyrimidin-6-yl)-phenyl]-benzenesulfonamide] |  |  |  | 2600 nM
O=C(Nc1n[nH]c2nc(-c3ccc(NS(=O)(=O)c4cc(Cl)ccc4Cl)cc3)ncc12)C1CCNCC1 [Example 546, N-[6-[4-[(2,5-Dichlorophenyl)sulfonylamino]phenyl]-1H-pyrazolo[3,4-d]pyrimidin-3-yl]piperidine-4-carboxamide] |  |  |  | 1100 nM
Cc1nc(-c2ccc(NS(=O)(=O)c3cc(Cl)ccc3Cl)cc2)nc2[nH]nc(NCC3CCOCC3)c12 [Example 547, 2,5-Dichloro-N-(4-{4-methyl-3-[(tetrahydro-pyran-4-ylmethyl)-amino]-1H-pyrazolo[3,4-d]pyrimidin-6-yl}-phenyl)-benzenesulfonamide] |  |  |  | 4000 nM
CC(C)Oc1nc(-c2ccc(NS(=O)(=O)c3cc(Cl)ccc3F)c(F)c2)nc2[nH]nc(N)c12 [Example 444, N-[4-(3-Amino-4-isopropoxy-1H-pyrazolo[3,4-d]pyrimidin-6-yl)-2-fluoro-phenyl]-5-chloro-2-fluoro-benzenesulfonamide] |  |  |  | 50 nM
Nc1n[nH]c2nc(-c3ccc(NS(=O)(=O)c4cc(Cl)ccc4F)cc3)nc(C(F)(F)F)c12 [Example 568, N-[4-(3-Amino-4-trifluoromethyl-1H-pyrazolo[3,4-d]pyrimidin-6-yl)-phenyl]-5-chloro-2-fluoro-benzenesulfonamide] |  |  |  | 170 nM
Cc1n[nH]c2nc(-c3ccc(NS(=O)(=O)c4cc(Cl)c(F)cc4F)cc3)ncc12 [Example 449, 5-Chloro-2,4-difluoro-N-[4-(3-methyl-1H-pyrazolo[3,4-d]pyrimidin-6-yl)-phenyl]-benzenesulfonamide] |  |  |  | 4900 nM
